Source: ChEMBL document CHEMBL1201862, “PubChem BioAssay data set” (2004)
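Protocol summary: plate cells (96-well), add compound at 5 concentrations, incubate 48 h, interpolate endpoints linearly. Here, GI50 denotes the concentration required for 50% inhibition of growth.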 Active and inactive are the calls of the source. Cut-off read from the data, not from the text of the source: active = GI50 up to about 1.1 µM and inactive = higher.

Tests used:
Assay in all cases: growth of human tumour cells (NCI), 48 h
[1] = tested on: 786-0
[2] = tested on: A549
[3] = tested on: ACHN
[4] = tested on: CAKI-1
[5] = tested on: CCRF-CEM
[6] = tested on: COLO 205
[7] = tested on: DLD-1
[8] = tested on: DMS-273
[9] = tested on: EKVX
[10] = tested on: HCC 2998
[11] = tested on: HCT-116
[12] = tested on: HCT-15
[13] = tested on: HL-60
[14] = tested on: HOP-18
[15] = tested on: HOP-62
[16] = tested on: HT-29
[17] = tested on: IGROV-1
[18] = tested on: K562
[19] = tested on: KM-20L2
[20] = tested on: KM12
[21] = tested on: LOX IMVI
[22] = tested on: LXFL 529
[23] = tested on: M14
[24] = tested on: M19-MEL
[25] = tested on: MOLT-4
[26] = tested on: Malme-3M
[27] = tested on: NCI-H226
[28] = tested on: NCI-H23
[29] = tested on: NCI-H460
[30] = tested on: NCI-H522
[31] = tested on: OVCAR-3
[32] = tested on: OVCAR-4
[33] = tested on: OVCAR-5
[34] = tested on: OVCAR-8
[35] = tested on: RPMI-8226
[36] = tested on: RXF 393
[37] = tested on: SF-268
[38] = tested on: SF-295
[39] = tested on: SF-539
[40] = tested on: SK-MEL-28
[41] = tested on: SK-MEL-2
[42] = tested on: SK-OV-3
[43] = tested on: SN12C
[44] = tested on: SNB-19
[45] = tested on: SNB-75
[46] = tested on: SNB-78
[47] = tested on: SR
[48] = tested on: SW-620
[49] = tested on: TK-10
[50] = tested on: U-251
[51] = tested on: UACC-257
[52] = tested on: UACC-62
[53] = tested on: UO-31
[54] = tested on: XF498
[55] = tested on: DMS-114
[56] = tested on: HOP-92
[57] = tested on: SK-MEL-5

In the case of `COC(=O)[C@@H]1CSC(=S)N1C(=O)C[C@H]1CC=CC[C@H]1CC(=O)Sc1ccccc1`, the GI50 [1] is reported as 17.5 µM (inactive), the GI50 [2] is reported as 17.7 µM (inactive) and the GI50 [3] is reported as 17.6 µM (inactive). For the same molecule, the GI50 [4] was > 10 µM (inactive), the GI50 [5] was 3.04 µM (inactive) and the GI50 [6] was 19.5 µM (inactive). The GI50 [7] was 17 µM (inactive), the GI50 [8] was 21.7 µM (inactive) and the GI50 [9] was 17.4 µM (inactive). The GI50 [10] was 17.9 µM (inactive), the GI50 [11] was 16.1 µM (inactive) and the GI50 [12] was 16.2 µM. The GI50 [13] was 3.47 µM (inactive), the GI50 [14] was 29.8 µM (inactive) and the GI50 [15] was 20.7 µM (inactive). For the same molecule, the GI50 [16] was 19.8 µM (inactive), the GI50 [17] was 19.8 µM (inactive) and the GI50 [18] was 12.1 µM (inactive). For the same molecule, the GI50 [19] was 20.9 µM (inactive), the GI50 [20] was 15.1 µM (inactive) and the GI50 [21] was 17.7 µM (inactive). For the same molecule, the GI50 [22] was 15.3 µM (inactive), the GI50 [23] was 16.7 µM (inactive) and the GI50 [24] was 23.4 µM (inactive). For the same molecule, the GI50 [25] was 4.29 µM (inactive), the GI50 [26] was 21.5 µM (inactive) and the GI50 [27] was 23.7 µM (inactive). For the same molecule, the GI50 [28] was 21 µM (inactive), the GI50 [29] was 17.7 µM (inactive) and the GI50 [30] was 12 µM (inactive). For the same molecule, the GI50 [31] was 19.2 µM (inactive), the GI50 [32] was > 10 µM (inactive) and the GI50 [33] was 19.1 µM (inactive). For the same molecule, the GI50 [34] was 21 µM (inactive), the GI50 [35] was 12.5 µM (inactive) and the GI50 [36] was 14.2 µM (inactive). For the same molecule, the GI50 [37] was 15.1 µM (inactive), the GI50 [38] was 22 µM (inactive) and the GI50 [39] was 17.8 µM (inactive). For the same molecule, the GI50 [40] was 16.4 µM (inactive), the GI50 [41] was 22.2 µM (inactive) and the GI50 [42] was 27.8 µM (inactive). For the same molecule, the GI50 [43] was 15.7 µM (inactive), the GI50 [44] was 18.2 µM (inactive) and the GI50 [45] was 15.4 µM (inactive). The GI50 [46] was 22.3 µM (inactive), the GI50 [47] was 8.99 µM (inactive) and the GI50 [48] was 17.4 µM (inactive). For the same molecule, the GI50 [49] was > 10 µM (inactive), the GI50 [50] was 15.5 µM (inactive) and the GI50 [51] was 18.5 µM (inactive). For the same molecule, the GI50 [52] was 19.3 µM (inactive), the GI50 [53] was 13.8 µM (inactive) and the GI50 [54] was 16.5 µM (inactive).
With `COc1ccccc1NC(=O)/C(=C/c1ccccc1)C(C)=O` the GI50 [1] was 35.1 µM (inactive), the GI50 [2] was 38 µM (inactive) and the GI50 [3] was 41.5 µM (inactive). The GI50 [4] was 35.1 µM (inactive), the GI50 [5] was 29.6 µM (inactive) and the GI50 [7] was 38.8 µM (inactive). For the same molecule, the GI50 [55] was 40.3 µM (inactive), the GI50 [9] was 45.4 µM (inactive) and the GI50 [10] was 36.1 µM (inactive). For the same molecule, the GI50 [11] was 43.3 µM (inactive), the GI50 [12] was 37.2 µM and the GI50 [13] was 23.6 µM (inactive). For the same molecule, the GI50 [14] was > 100 µM (inactive), the GI50 [15] was 59.4 µM (inactive) and the GI50 [56] was 45.3 µM (inactive). The GI50 [16] was 32.3 µM (inactive), the GI50 [17] was 53 µM (inactive) and the GI50 [18] was 27.6 µM (inactive). The GI50 [20] was 36.9 µM (inactive), the GI50 [21] was 37.2 µM (inactive) and the GI50 [22] was 43.9 µM (inactive). The GI50 [23] was 25.2 µM (inactive), the GI50 [24] was 65.2 µM (inactive) and the GI50 [25] was 30.1 µM (inactive). For the same molecule, the GI50 [26] was 27.7 µM (inactive), the GI50 [27] was 37.1 µM (inactive) and the GI50 [28] was 19.1 µM (inactive). The GI50 [29] was 37.2 µM (inactive), the GI50 [30] was 25.5 µM (inactive) and the GI50 [31] was 38.6 µM (inactive). For the same molecule, the GI50 [32] was 64.4 µM (inactive), the GI50 [33] was > 100 µM (inactive) and the GI50 [34] was 37.4 µM (inactive). The GI50 [35] was 35.5 µM (inactive), the GI50 [36] was 20.7 µM (inactive) and the GI50 [37] was 38.4 µM (inactive). For the same molecule, the GI50 [38] was 27.5 µM (inactive), the GI50 [39] was 23.6 µM (inactive) and the GI50 [40] was 62.4 µM (inactive). The GI50 [41] was 38.5 µM (inactive), the GI50 [57] was 22.7 µM (inactive) and the GI50 [42] was 44.5 µM (inactive). For the same molecule, the GI50 [43] was 42.2 µM (inactive), the GI50 [44] was 47.3 µM (inactive) and the GI50 [46] was 10.8 µM (inactive). For the same molecule, the GI50 [47] was 36.6 µM (inactive), the GI50 [48] was 36.9 µM (inactive) and the GI50 [49] was 44.9 µM (inactive). The GI50 [50] was 4.47 µM (inactive), the GI50 [51] was 47 µM (inactive) and the GI50 [52] was 32.9 µM (inactive). For the same molecule, the GI50 [53] was 56.8 µM (inactive) and the GI50 [54] was 19.4 µM (inactive).
